# Measurements reported in patent US11612604B2, “Methods of treating cancer with PLK4 inhibitors” (LUDWIG INSTITUTE FOR CANCER RESEARCH LTD, priority 2017, dated 2023).
# Biological target: T1, PLK4 (Homo sapiens, UniProt O00444)
# T1 sequence (O00444 1-970): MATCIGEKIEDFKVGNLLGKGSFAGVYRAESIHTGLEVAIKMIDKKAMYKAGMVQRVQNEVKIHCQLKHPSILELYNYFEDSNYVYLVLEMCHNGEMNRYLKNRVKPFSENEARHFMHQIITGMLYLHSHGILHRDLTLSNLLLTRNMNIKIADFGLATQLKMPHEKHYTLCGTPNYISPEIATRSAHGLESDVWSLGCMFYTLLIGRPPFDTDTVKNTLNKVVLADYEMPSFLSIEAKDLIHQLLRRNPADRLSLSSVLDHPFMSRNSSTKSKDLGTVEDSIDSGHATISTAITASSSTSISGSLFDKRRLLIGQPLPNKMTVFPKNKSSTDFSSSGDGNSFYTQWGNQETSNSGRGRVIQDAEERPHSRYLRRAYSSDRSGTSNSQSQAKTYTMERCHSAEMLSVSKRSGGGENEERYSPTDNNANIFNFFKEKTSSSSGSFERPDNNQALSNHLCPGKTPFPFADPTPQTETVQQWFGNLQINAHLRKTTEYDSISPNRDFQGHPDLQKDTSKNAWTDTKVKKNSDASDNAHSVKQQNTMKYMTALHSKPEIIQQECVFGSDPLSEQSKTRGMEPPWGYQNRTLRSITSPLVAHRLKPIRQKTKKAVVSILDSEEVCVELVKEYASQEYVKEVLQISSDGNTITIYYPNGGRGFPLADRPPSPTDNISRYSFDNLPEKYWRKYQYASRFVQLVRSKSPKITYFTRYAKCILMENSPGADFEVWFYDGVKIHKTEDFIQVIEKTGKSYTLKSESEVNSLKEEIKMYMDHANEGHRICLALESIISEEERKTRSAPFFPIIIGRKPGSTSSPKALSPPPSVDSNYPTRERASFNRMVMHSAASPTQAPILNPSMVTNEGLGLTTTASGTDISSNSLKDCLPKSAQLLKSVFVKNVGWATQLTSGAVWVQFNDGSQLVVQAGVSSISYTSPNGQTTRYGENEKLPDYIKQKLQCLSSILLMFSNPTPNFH
# Experiment: Activity (IC50) of the Table 1 compounds as PLK4 inhibitors
# Format: biochemical
# Conditions: Table 1, IC50 class
row,Structure (SMILES),IC50
1,COc1c(Nc2cc(C)[nH]n2)nc(Sc2ccc(NC(C)=O)cc2)nc1C1CCN(CCN(C)C)CC1,100 to 1000 nM
2,COc1c(Nc2cc(C)[nH]n2)nc(Sc2ccc(NC(C)=O)cc2)nc1N1CCC(CC(=O)N(C)C)CC1,< 100 nM
3,COc1c(Nc2cc(C)[nH]n2)nc(Sc2ccc(NC(C)=O)cc2)nc1N1CCN(CC(=O)N2CCCCC2)CC1,< 100 nM
4,COc1c(Nc2cc(C)[nH]n2)nc(Sc2ccc(NC(C)=O)cc2)nc1N1CC2CCC(C1)N2CCN1CCN(C)CC1,< 100 nM
5,COc1c(Nc2cc(C)[nH]n2)nc(Sc2ccc(NC(C)=O)cc2)nc1N1CCN(CCN(C)C)CC1,< 100 nM
6,COc1c(Nc2cc(C)[nH]n2)nc(Sc2ccc(C(=O)N(C)C)cc2)nc1N1CCN(CCN(C)C)CC1,< 100 nM
7,COc1c(Nc2cc(C)[nH]n2)nc(Sc2ccc(S(C)(=O)=O)cc2)nc1N1CCN(CCN(C)C)CC1,< 100 nM
8,CNC(=O)c1ccc(Sc2nc(Nc3cc(C)[nH]n3)c(OC)c(N3CCN(CCN(C)C)CC3)n2)cc1,< 100 nM
9,COc1c(Nc2cc(C)[nH]n2)nc(Sc2ccc(NC(C)=O)cc2)nc1N1CCN(CCN(C)Cc2ccccc2)CC1,< 100 nM
10,COc1c(Nc2cc(C)[nH]n2)nc(Sc2ccc(NC(C)=O)cc2)nc1N1CCN(CCN(C)c2ccccc2)CC1,< 100 nM
11,COc1c(Nc2cc(C)[nH]n2)nc(Sc2ccc(NC(C)=O)cc2)nc1N1CCN(CCN2C3CCCC2CC3)CC1,< 100 nM
12,COc1c(Nc2cc(C)[nH]n2)nc(Sc2ccc([S+](C)[O-])cc2)nc1N1CCN(CCN(C)C)CC1 (centres unmarked),< 100 nM
13,COc1c(Nc2cc(C)[nH]n2)nc(Sc2ccc(NC(C)=O)cc2)nc1N1CC2CCC(C1)N2CCN1CCCCCCC1,< 100 nM
14,COc1c(Nc2cc(C)[nH]n2)nc(Sc2ccc(NC(C)=O)cc2)nc1N1CCN(CCS(C)(=O)=O)CC1,< 100 nM
15,COc1c(Nc2cc(C)[nH]n2)nc(Sc2ccc(NC(C)=O)cc2)nc1N1CCN(CCN2C3CCCC2CCC3)CC1,< 100 nM
16,COc1c(Nc2ncc(C)s2)nc(Sc2ccc(NC(C)=O)cc2)nc1N1CCN(CCN(C)C)CC1,< 100 nM
17,CC(=O)Nc1ccc(Sc2nc(Nc3cc(C)[nH]n3)c(C)c(C3CCN(CCN(C)C)CC3)n2)cc1,< 100 nM
18,COc1c(Nc2cc(C)[nH]n2)nc(Sc2ccc(S(C)(=O)=O)cc2)nc1N1CCN(CCN2CCN(C)CC2)CC1,< 100 nM

row,Structure (SMILES),IC50
1,COc1c(Nc2cc(C)[nH]n2)nc(Sc2ccc(NS(C)(=O)=O)cc2)nc1N1CCN(CCN(C)C)CC1,< 100 nM
2,CCS(=O)(=O)c1ccc(Sc2nc(Nc3cc(C)[nH]n3)c(OC)c(N3CCN(CCN(C)C)CC3)n2)cc1,< 100 nM
3,COc1c(Nc2cc(C)[nH]n2)nc(Sc2ccc(S(=O)(=O)C(F)(F)F)cc2)nc1N1CCN(CCN(C)C)CC1,< 100 nM
4,COc1c(Nc2cc(C)[nH]n2)nc(Sc2ccc(S(=O)(=O)N(C)C)cc2)nc1N1CCN(CCN(C)C)CC1,< 100 nM
5,COc1c(Nc2cc(C)[nH]n2)nc(Sc2ccc(S(=O)(=O)Cc3ccccc3)cc2)nc1N1CCN(CCN(C)C)CC1,< 100 nM
6,COc1c(Nc2cc(C)[nH]n2)nc(Sc2ccc(S(=O)(=O)COCc3ccccc3)cc2)nc1N1CCN(CCN(C)C)CC1,< 100 nM
7,COc1c(Nc2ncc(C)s2)nc(Sc2ccc(S(C)(=O)=O)cc2)nc1N1CCN(CCN(C)C)CC1,< 100 nM
8,COc1c(Nc2cc(C)[nH]n2)nc(Sc2ccc(NC(C)=O)cc2)nc1C1CCN(CCN2CCN(C)CC2)CC1,100 to 1000 nM
9,COc1c(Nc2cc(C)[nH]n2)nc(Sc2ccc(S(=O)(=O)CCO)cc2)nc1N1CCN(CCN(C)C)CC1,< 100 nM
10,CCCS(=O)(=O)c1ccc(Sc2nc(Cc3cc(C)[nH]n3)c(OC)c(N3CCN(CCN(C)C)CC3)n2)cc1,< 100 nM
11,CCS(=O)(=O)c1ccc(Sc2nc(Nc3cc(C)[nH]n3)c(OC)c(N3CCC(CCN(C)C)CC3)n2)cc1,< 100 nM
12,COc1c(Nc2cc(C)[nH]n2)nc(Sc2ccc(S(=O)(=O)CC(C)C)cc2)nc1N1CCN(CCN(C)C)CC1,< 100 nM
13,CCS(=O)(=O)c1ccc(Sc2nc(Nc3cc(C)[nH]n3)c(OC)c(N3CCN(CCN4CCN(C)CC4)CC3)n2)cc1,< 100 nM
14,COc1c(Nc2cc(C)[nH]n2)nc(Sc2ccc(S(=O)(=O)C(C)C)cc2)nc1N1CCN(CCN(C)C)CC1,< 100 nM
15,COc1c(Nc2cc(C)[nH]n2)nc(Sc2ccc(S(=O)(=O)Cc3ccc(F)cc3)cc2)nc1N1CCN(CCN(C)C)CC1,< 100 nM
16,COc1ccc(CS(=O)(=O)c2ccc(Sc3nc(Nc4cc(C)[nH]n4)c(OC)c(N4CCN(CCN(C)C)CC4)n3)cc2)cc1,< 100 nM
17,COc1c(Nc2cc(C)[nH]n2)nc(Sc2ccc(S(=O)(=O)Cc3ccccc3Cl)cc2)nc1N1CCN(CCN(C)C)CC1,< 100 nM
18,COc1c(Nc2cc(C)[nH]n2)nc(Sc2ccc(S(=O)(=O)Cc3cccc(Cl)c3)cc2)nc1N1CCN(CCN(C)C)CC1,< 100 nM

# The next lines start with the values.
row,IC50,Structure (SMILES)
1,< 100 nM,CC(=O)Nc1ccc(Sc2nc(Nc3cc(C)[nH]n3)c(C)c(N3CCCCC3)n2)cc1
2,< 100 nM,COCCN(C)c1nc(Sc2ccc(NC(C)=O)cc2)nc(Nc2cc(C)[nH]n2)c1C
3,< 100 nM,COCCNc1nc(Sc2ccc(NC(C)=O)cc2)nc(Nc2cc(C)[nH]n2)c1C
4,< 100 nM,COc1c(Nc2cc(C)[nH]n2)nc(Sc2ccc(NC(=O)C3CCCC3)cc2)nc1N1CCOCC1
5,< 100 nM,COc1c(Nc2cc(C)[nH]n2)nc(Sc2ccc(NC(C)=O)cc2)nc1N1CCN(CCN)CC1
6,< 100 nM,CCN(CC)CCN1CCN(c2nc(Sc3ccc(NC(C)=O)cc3)nc(Nc3cc(C)[nH]n3)c2OC)CC1
7,< 100 nM,COc1c(Nc2cc(C)[nH]n2)nc(Sc2ccc(NC(C)=O)cc2)nc1N1CCN(CCN2CCNCC2)CC1
8,< 100 nM,COc1c(Nc2cc(C)[nH]n2)nc(Sc2ccc(NC(C)=O)cc2)nc1N1CCC(CC(=O)O)CC1
9,< 100 nM,COc1c(Nc2cc(C)[nH]n2)nc(Sc2ccc(NC(C)=O)cc2)nc1N1CCN(CCN2CCN(C)CC2)CC1
10,< 100 nM,COC(=O)CC1CCN(c2nc(Sc3ccc(NC(C)=O)cc3)nc(Nc3cc(C)[nH]n3)c2OC)CC1
11,< 100 nM,COc1c(Nc2cc(C)[nH]n2)nc(Sc2ccc(NC(C)=O)cc2)nc1N1CCN(C(N)=O)CC1
12,< 100 nM,COc1c(Nc2cc(C)[nH]n2)nc(Sc2ccc(NC(C)=O)cc2)nc1N1CCN(CC(=O)O)CC1
13,< 100 nM,COc1c(Nc2cc(C)[nH]n2)nc(Sc2ccc(NC(C)=O)cc2)nc1N1CC2CCC(C1)N2CCN(C)C
14,< 100 nM,COc1c(Nc2cc(C)[nH]n2)nc(Sc2ccc(NC(C)=O)cc2)nc1N1CCC(CC(N)=O)CC1
15,< 100 nM,COc1c(Nc2cc(C)[nH]n2)nc(Sc2ccc(NC(C)=O)cc2)nc1N1CCN(C(=N)NO)CC1
16,< 100 nM,COc1c(Nc2cc(C)[nH]n2)nc(Sc2ccc(NC(C)=O)cc2)nc1N1CCN(CCN(C)OC)CC1
17,< 100 nM,COc1c(Nc2cc(C)[nH]n2)nc(Sc2ccc(NC(C)=O)cc2)nc1N1CCN(CCNC(N)=O)CC1
18,< 100 nM,COc1c(Nc2cc(C)[nH]n2)nc(Sc2ccc(NC(C)=O)cc2)nc1N1CC(C)N(CCN(C)C)C(C)C1 (centres unmarked)
19,< 100 nM,COc1c(Nc2cc(C)[nH]n2)nc(Sc2ccc(NC(C)=O)cc2)nc1N1CCN(C(=N)N)CC1
20,< 100 nM,COC(=O)CN1CCN(c2nc(Sc3ccc(NC(C)=O)cc3)nc(Nc3cc(C)[nH]n3)c2OC)CC1
21,< 100 nM,COc1c(Nc2cc(C)[nH]n2)nc(Sc2ccc(NC(C)=O)cc2)nc1N1CCN(CCN2CCCCCC2)CC1
22,< 100 nM,COc1c(Nc2cc(C)[nH]n2)nc(Sc2ccc(NC(C)=O)cc2)nc1N1CCN(CCNC(=N)N)CC1
23,< 100 nM,COC(=O)c1ccc(Sc2nc(Nc3cc(C)[nH]n3)c(OC)c(N3CCN(CCN(C)C)CC3)n2)cc1
